What was measured:
Details in all cases: exposure time: 72 h
[1] = system: FT3469 (normal neural stem cell line); experiment: surviving fraction (nuclei count normalised to DMSO); higher = more cells surviving (less toxic)
[2] = system: E13 (patient-derived glioblastoma stem cells of classical subtype); experiment: as above
[3] = system: E57 (patient-derived glioblastoma stem cells of mesenchymal subtype); experiment: as above
[4] = system: E28 (patient-derived glioblastoma stem cells of classical subtype); experiment: as above
[5] = system: E34 (patient-derived glioblastoma stem cells of proneural subtype); experiment: as above
[6] = system: E21 (patient-derived glioblastoma stem cells of mesenchymal subtype); experiment: as above
[7] = system: E31 (patient-derived glioblastoma stem cells of proneural subtype); experiment: as above
[8] = system: FT3469; experiment: phenotypic distance (Euclidean, principal components) from DMSO controls (arbitrary units); higher = stronger morphological change
[9] = system: E13; experiment: as above
[10] = system: E57; experiment: as above
[11] = system: E28; experiment: as above
[12] = system: E34; experiment: as above
[13] = system: E21; experiment: as above
[14] = system: E31; experiment: as above
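Wherever phenotypic distance (Euclidean, principal components) from DMSO controls is given: cell Painting imaging in 384-well plates, CellProfiler features reduced to at least 20 principal components, Euclidean distance versus same-plate DMSO vehicle wells (0.1% v/v), median over six images per well.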
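Wherever surviving fraction (nuclei count normalised to DMSO) is given: nuclei counted by high-content imaging of Hoechst-stained cells in laminin-coated 384-well plates, relative to 0.1% DMSO vehicle wells, with staurosporine as cell-death control.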

Nc1ccn([C@@H]2O[C@H](CO)[C@@H](O)[C@@H]2O)c(=O)n1 [Cytarabine]
Details | phenotypic distance | surviving fraction
[1], 4.1 nM | – | 0.758
[1], 12.3 nM | – | 0.684
[1], 37 nM | – | 0.654
[1], 111.1 nM | – | 0.753
[1], 333.3 nM | – | 0.684
[1], 1000 nM | – | 0.553
[1], 3000 nM | – | 0.62
[2], 4.1 nM | – | 0.893
[2], 12.3 nM | – | 0.843
[2], 37 nM | – | 0.673
[2], 111.1 nM | – | 0.645
[2], 333.3 nM | – | 0.42
[2], 1000 nM | – | 0.448
[2], 3000 nM | – | 0.389
[3], 4.1 nM | – | 0.687
[3], 12.3 nM | – | 0.62
[3], 37 nM | – | 0.443
[3], 111.1 nM | – | 0.316
[3], 333.3 nM | – | 0.179
[3], 1000 nM | – | 0.179
[3], 3000 nM | – | 0.161
[4], 4.1 nM | – | 0.778
[4], 12.3 nM | – | 0.775
[4], 37 nM | – | 0.542
[4], 111.1 nM | – | 0.586
[4], 333.3 nM | – | 0.474
[4], 1000 nM | – | 0.511
[4], 3000 nM | – | 0.333
[5], 4.1 nM | – | 0.892
[5], 12.3 nM | – | 0.803
[5], 37 nM | – | 0.723
[5], 111.1 nM | – | 0.687
[5], 333.3 nM | – | 0.555
[5], 1000 nM | – | 0.514
[5], 3000 nM | – | 0.466
[6], 4.1 nM | – | 0.787
[6], 12.3 nM | – | 0.77
[6], 37 nM | – | 0.649
[6], 111.1 nM | – | 0.533
[6], 333.3 nM | – | 0.339
[6], 1000 nM | – | 0.236
[6], 3000 nM | – | 0.154
[7], 4.1 nM | – | 0.861
[7], 12.3 nM | – | 0.637
[7], 37 nM | – | 0.463
[7], 111.1 nM | – | 0.312
[7], 333.3 nM | – | 0.149
[7], 1000 nM | – | 0.127
[7], 3000 nM | – | 0.126
[8], 4.1 nM | 1.13 | –
[8], 12.3 nM | 1.74 | –
[8], 37 nM | 1.5 | –
[8], 111.1 nM | 1.8 | –
[8], 333.3 nM | 2.13 | –
[8], 1000 nM | 1.94 | –
[8], 3000 nM | 1.69 | –
[9], 4.1 nM | 0.95 | –
[9], 12.3 nM | 1.36 | –
[9], 37 nM | 1.77 | –
[9], 111.1 nM | 2.69 | –
[9], 333.3 nM | 4.49 | –
[9], 1000 nM | 4.63 | –
[9], 3000 nM | 4.85 | –
[10], 4.1 nM | 2.41 | –
[10], 12.3 nM | 3.28 | –
[10], 37 nM | 4.72 | –
[10], 111.1 nM | 6.26 | –
[10], 333.3 nM | 7.13 | –
[10], 1000 nM | 6.77 | –
[10], 3000 nM | 6.62 | –
[11], 4.1 nM | 1.71 | –
[11], 12.3 nM | 1.24 | –
[11], 37 nM | 1.72 | –
[11], 111.1 nM | 2.6 | –
[11], 333.3 nM | 2.45 | –
[11], 1000 nM | 2.47 | –
[11], 3000 nM | 3.27 | –
[12], 4.1 nM | 1.44 | –
[12], 12.3 nM | 1.82 | –
[12], 37 nM | 2.13 | –
[12], 111.1 nM | 3.16 | –
[12], 333.3 nM | 3.2 | –
[12], 1000 nM | 3.33 | –
[12], 3000 nM | 3.62 | –
[13], 4.1 nM | 1.63 | –
[13], 12.3 nM | 2.01 | –
[13], 37 nM | 2.73 | –
[13], 111.1 nM | 3.44 | –
[13], 333.3 nM | 4.54 | –
[13], 1000 nM | 4.75 | –
[13], 3000 nM | 5.65 | –
[14], 4.1 nM | 1.02 | –
[14], 12.3 nM | 1.8 | –
[14], 37 nM | 1.75 | –
[14], 111.1 nM | 3.19 | –
[14], 333.3 nM | 3.48 | –
[14], 1000 nM | 3.7 | –
[14], 3000 nM | 4.49 | –

O=C(CCBr)N1CCN(C(=O)CCBr)CC1 [Pipobroman]
Details | phenotypic distance | surviving fraction
[1], 4.1 nM | – | 1.12
[1], 12.3 nM | – | 1.08
[1], 37 nM | – | 0.946
[1], 111.1 nM | – | 1
[1], 333.3 nM | – | 1.05
[1], 1000 nM | – | 0.961
[1], 3000 nM | – | 0.86
[2], 4.1 nM | – | 0.929
[2], 12.3 nM | – | 0.984
[2], 37 nM | – | 1.02
[2], 111.1 nM | – | 0.921
[2], 333.3 nM | – | 0.977
[2], 1000 nM | – | 0.982
[2], 3000 nM | – | 0.98
[3], 4.1 nM | – | 1.05
[3], 12.3 nM | – | 1.02
[3], 37 nM | – | 1.06
[3], 111.1 nM | – | 1.07
[3], 333.3 nM | – | 1.07
[3], 1000 nM | – | 0.958
[3], 3000 nM | – | 0.816
[4], 4.1 nM | – | 0.961
[4], 12.3 nM | – | 1.13
[4], 37 nM | – | 0.966
[4], 111.1 nM | – | 0.954
[4], 333.3 nM | – | 0.979
[4], 1000 nM | – | 0.931
[4], 3000 nM | – | 0.713
[5], 4.1 nM | – | 1.03
[5], 12.3 nM | – | 0.865
[5], 37 nM | – | 1.08
[5], 111.1 nM | – | 1.06
[5], 333.3 nM | – | 1.01
[5], 1000 nM | – | 0.892
[5], 3000 nM | – | 1.1
[6], 4.1 nM | – | 1.13
[6], 12.3 nM | – | 0.912
[6], 37 nM | – | 1.01
[6], 111.1 nM | – | 0.966
[6], 333.3 nM | – | 1.05
[6], 1000 nM | – | 0.836
[6], 3000 nM | – | 0.811
[7], 4.1 nM | – | 0.99
[7], 12.3 nM | – | 0.958
[7], 37 nM | – | 0.924
[7], 111.1 nM | – | 0.976
[7], 333.3 nM | – | 0.859
[7], 1000 nM | – | 0.759
[7], 3000 nM | – | 0.716
[8], 4.1 nM | 0.541 | –
[8], 12.3 nM | 0.755 | –
[8], 37 nM | 0.771 | –
[8], 111.1 nM | 0.734 | –
[8], 333.3 nM | 0.615 | –
[8], 1000 nM | 1.02 | –
[8], 3000 nM | 1.65 | –
[9], 4.1 nM | 0.472 | –
[9], 12.3 nM | 0.7 | –
[9], 37 nM | 0.541 | –
[9], 111.1 nM | 0.407 | –
[9], 333.3 nM | 0.764 | –
[9], 1000 nM | 0.638 | –
[9], 3000 nM | 0.745 | –
[10], 4.1 nM | 0.542 | –
[10], 12.3 nM | 0.868 | –
[10], 37 nM | 0.587 | –
[10], 111.1 nM | 0.428 | –
[10], 333.3 nM | 0.404 | –
[10], 1000 nM | 0.464 | –
[10], 3000 nM | 1.79 | –
[11], 4.1 nM | 0.503 | –
[11], 12.3 nM | 0.763 | –
[11], 37 nM | 0.907 | –
[11], 111.1 nM | 0.719 | –
[11], 333.3 nM | 0.82 | –
[11], 1000 nM | 0.794 | –
[11], 3000 nM | 1.56 | –
[12], 4.1 nM | 0.724 | –
[12], 12.3 nM | 0.45 | –
[12], 37 nM | 0.596 | –
[12], 111.1 nM | 0.698 | –
[12], 333.3 nM | 0.871 | –
[12], 1000 nM | 0.646 | –
[12], 3000 nM | 0.982 | –
[13], 4.1 nM | 0.8 | –
[13], 12.3 nM | 0.777 | –
[13], 37 nM | 0.578 | –
[13], 111.1 nM | 0.528 | –
[13], 333.3 nM | 0.76 | –
[13], 1000 nM | 0.889 | –
[13], 3000 nM | 2.2 | –
[14], 4.1 nM | 0.424 | –
[14], 12.3 nM | 0.596 | –
[14], 37 nM | 0.531 | –
[14], 111.1 nM | 0.433 | –
[14], 333.3 nM | 0.574 | –
[14], 1000 nM | 1.19 | –
[14], 3000 nM | 1.45 | –
